“And” between values parts separate entries of the source, which are not always exact repeats. Identical values can stand only once.
Key:
digital ischemic lesions = assay: Study of Treprostinil for digital ischemic lesions in patients with systemic sclerosis (Example VIII); assay type: in vivo, human
Description: This study involved 12 subjects with diffuse or limited scleroderma with at least one DIL that had been present for 2 months or more (Table 1). Subjects who completed the study were treated for 12 weeks with Treprostinil and followed for another 8 weeks after drug discontinuation (FIG. 1). […] Assessments were performed at baseline, weeks 2, 6, 12, 16, and 20. At each visit, the largest (target) lesion and other prominent DIL were measured by recording the largest diameter of the lesions. DIL were counted and photographed. Patient and physician global assessment of ulcers as well as patient assessment of disability from DIL were measured using visual analogue scales (VAS) at each visit.

critical limb ischemia = assay: Open-label study of subcutaneous treprostinil in critical limb ischemia (Example X); assay type: in vivo, human
Text: The planned enrollment was ten patients. All patients were to have Fontaine Stage III-IV or Rutherford Class 4-6 disease and ankle brachial indexes (ABI) from 0-0.55 in the most affected limb or the limb containing the reference ischemic wound for wound healing assessments. […] Any condition or abnormal laboratory value which, based on information in the treprostinil package insert, would constitute an unacceptable risk to the patient's safety, also was an exclusion criterion. Patients could not have been in an investigational trial within the past 30 days or been a non-responder to chronic prostanoid treatment in the past 30 days.
After the completion of baseline assessments, treprostinil therapy was initiated in the clinic. […] Patients and/or a caregiver were trained to administer treprostinil on an outpatient basis using an ambulatory subcutaneous infusion pump (Minimed, Sylmar, Calif., Model 407C). Each patient was to be initiated at a dose of 2.5 ng/kg/min or lower, with the dose titrated based on tolerability. Dose increases were to be 1.25-2.5 ng/kg/min per week. The maximum allowed dose was 15 ng/kg/min and the minimum allowed dose was 0.625 ng/kg/min. The patients were instructed to change the subcutaneous infusion site every three days.
Patients returned to the clinic for assessments at Weeks 2, 6, and 12. Treprostinil treatment was terminated by gradually decreasing the infusion rate (over a period of 1-4 hours, as clinically indicated) after the Week 12 visit assessments were completed.
Safety was assessed in all patients using adverse event (AEs) and physical examination findings. Signs and symptoms of CLI or worsening CLI were not considered to be AEs unless found to be different in causality, intensity, or frequency.
Rest pain was assessed in all patients using a visual analog scale (VAS) for rest pain. The patients were asked to rate their leg pain on a scale of 0-10 with 0 reflecting no pain and 10 reflecting the worst pain. The scale was printed and the patients were asked to place a mark on the number that reflected their pain experience. Patients were asked to rate the worst pain they had experienced since the previous assessment and their average pain during that time frame. Analgesic medication use was assessed by the investigator as unchanged, increased, decreased, or discontinued.
Wound assessments were to be conducted in patients who had at least one ischemic wound at baseline. If the patient had multiple ischemic wounds, then one or two (usually the largest or most severe wounds) were be selected as reference wounds. The selected wound(s) was photographed for documentation. When possible, the outside edge of the wound(s) was traced for area measurement. The tracings were used to calculate wound area by measuring the length and width of the wound. Not all wounds were of the nature that tracings were possible for example, wounds between toes or on the heel with extensive tissue loss were not traced. These wounds were described and photographed.
In patients who had wounds other than those chosen as reference wounds, the overall status (i.e., worse, the same, improved, or healed) of each additional wound also was documented at each study visit. Any new wounds that occurred during the study also were carefully documented.

[1] = tested on: large blood vessels of the lower limbs; conditions: patients with severe intermittent claudication; cited from earlier work
[2] = tested on: human alveolar macrophages; conditions: cited from earlier work
[3] = individual patients 1-10 (one table line each), versus baseline pain medication, listed as treprostinil

CCCCC[C@H](O)CC[C@@H]1[C@H]2Cc3cccc(OCC(=O)O)c3C[C@H]2C[C@H]1O [UT-15, 9-deoxy-2′,9-alpha-methano-3-oxa-4,5,6-trinor-3,7-(1′,3′-interphenylene)-13,14-dihydro-prostaglandin F1]
physician global assessment of DIL severity, average improvement (digital ischemic lesions; after 12 weeks of therapy): 60%
patients who developed new ulcers during the 8-week follow-up period after drug discontinuation (digital ischemic lesions; after drug discontinuation): two of three
new ulcers while receiving continuous therapy (digital ischemic lesions; any patients): No new ulcers
subjective measures of severity of DIL (patient and physician global assessment, DIL disability VAS) (digital ischemic lesions; by week 6, all five subjects): marked improvements
DIL disability VAS score, average improvement (digital ischemic lesions; by week 12): 77%
patient global assessment, average improvement (digital ischemic lesions; by week 12): 89%
average decrease in the size of baseline DIL (digital ischemic lesions; continuous sc infusion, 12 weeks): 65%
target lesions (digital ischemic lesions; four subjects who completed 12 weeks of active therapy, sc infusion up to 15 ng/kg/min): improved in all patients
subjects unable to complete the study due to intolerable injection site pain (digital ischemic lesions; of 12 subjects): five
subjects with complete resolution of their target lesions (digital ischemic lesions; of the four subjects who completed 12 weeks): three
wounds during the twelve weeks of drug treatment (critical limb ischemia; Patient 3): remained stable
average rest pain score (critical limb ischemia; Patient 3, 7 at baseline): 4
worst rest pain score (critical limb ischemia; Patient 3, reduced from 8): 4
reduction in average rest pain (critical limb ischemia; baseline to week 12): 58%
reduction in the worst rest pain (critical limb ischemia; baseline to week 12): 64%
relation of SAEs to treprostinil (critical limb ischemia; cholecystectomy, worsening congestive heart failure): unlikely to be related
pain relief (critical limb ischemia; conclusion of study): pain relief in all patients
Pain Medication Consumption Week 2 (critical limb ischemia; [3]): No change (5×) and Less (4×) and PERCOCET ®
Pain Medication Consumption Week 6 (critical limb ischemia; [3]): Less (5×) and Increased and No change (2×) and None and Discontinued
Pain Medication Consumption Week 12 (critical limb ischemia; [3]): Darvocet and PERCOCET ® and None (2×) and No change (4×)
patients who discontinued drug prematurely (critical limb ischemia; of ten patients): Two
patients with complete healing of their wounds (critical limb ischemia; of ten patients): Three
patients with diarrhea (critical limb ischemia; of ten patients): one
patients with mild headache (critical limb ischemia; of ten patients): one
patients with mild jaw pain (critical limb ischemia; of ten patients): Two
week of complete wound closure (critical limb ischemia; patient 5, 15 ng/kg/min): 6 week
week of complete resolution of rest pain (critical limb ischemia; patient 7, 7.5 ng/kg/min): 6 week
week of complete wound closure (critical limb ischemia; patient 7, 7.5 ng/kg/min): 12 week
week of complete resolution of ischemic rest pain (critical limb ischemia; patient 10, 15 ng/kg/min): 2 week
week of complete wound closure (critical limb ischemia; patient 10, 15 ng/kg/min): 12 week
new wounds during the trial (critical limb ischemia; ten patients): No patient developed a new wound
serious adverse events (SAEs) (critical limb ischemia; ten patients): two
most common side effect (critical limb ischemia; ten patients, sc infusion up to 15 ng/kg/min): infusion site pain
patients switched to a non-sedating, non-narcotic pain medication (critical limb ischemia; week 12): one
patients with complete pain relief who discontinued all pain medications (critical limb ischemia; week 12): two
patients with increased consumption of pain medication (critical limb ischemia; week 12): one
patients with medication usage unchanged from baseline (critical limb ischemia; week 12): 4 patients
patients with reduced pain medication consumption (critical limb ischemia; week 12): three
average rest pain, mean VAS (0-10) (critical limb ischemia; week 12, baseline mean 7.1): 2.4
worst rest pain, mean VAS (0-10) (critical limb ischemia; week 12, baseline mean 8.4): 2.5
blood flow in large blood vessels of the lower limbs [1]: increase in blood flow
inflammatory cytokine (tumor necrosis factor-α, interleukin-1β, interleukin-6, GM-CSF) secretion and gene expression [2]: inhibits
